Reference: patent US20260137703A1, “2-AMINO-PYRIDO[2,3-D]PYRIMIDIN-7(8H)-ONE AND 7-AMINO-1-PYRIMIDO[4,5-D]PYRIMIDIN-2(1 H)-ONE DERIVATIVES AS EGFR INHIBITORS FOR THE TREATMENT OF CANCER” (Cancer Research Technology Limited, priority 2022, published 2026)
pIC50: −log10 of the molar value. Read-outs that look alike come from different tables or passages of the source.

What was measured:
[1] = other bond, THF
[2] = target: T1, Phospho-EGFR (Tyr1068) in H1975 cells (Homo sapiens, UniProt P00533, L858R/T790M); assay: HTRF pEGFR/total EGFR in H1975 cells; type: cell-based; details: ratio pEGFR/total EGFR, compound 3 hours
T1 construct: host or cells: H1975
T1 sequence (P00533 25-1210 T790M/L858R): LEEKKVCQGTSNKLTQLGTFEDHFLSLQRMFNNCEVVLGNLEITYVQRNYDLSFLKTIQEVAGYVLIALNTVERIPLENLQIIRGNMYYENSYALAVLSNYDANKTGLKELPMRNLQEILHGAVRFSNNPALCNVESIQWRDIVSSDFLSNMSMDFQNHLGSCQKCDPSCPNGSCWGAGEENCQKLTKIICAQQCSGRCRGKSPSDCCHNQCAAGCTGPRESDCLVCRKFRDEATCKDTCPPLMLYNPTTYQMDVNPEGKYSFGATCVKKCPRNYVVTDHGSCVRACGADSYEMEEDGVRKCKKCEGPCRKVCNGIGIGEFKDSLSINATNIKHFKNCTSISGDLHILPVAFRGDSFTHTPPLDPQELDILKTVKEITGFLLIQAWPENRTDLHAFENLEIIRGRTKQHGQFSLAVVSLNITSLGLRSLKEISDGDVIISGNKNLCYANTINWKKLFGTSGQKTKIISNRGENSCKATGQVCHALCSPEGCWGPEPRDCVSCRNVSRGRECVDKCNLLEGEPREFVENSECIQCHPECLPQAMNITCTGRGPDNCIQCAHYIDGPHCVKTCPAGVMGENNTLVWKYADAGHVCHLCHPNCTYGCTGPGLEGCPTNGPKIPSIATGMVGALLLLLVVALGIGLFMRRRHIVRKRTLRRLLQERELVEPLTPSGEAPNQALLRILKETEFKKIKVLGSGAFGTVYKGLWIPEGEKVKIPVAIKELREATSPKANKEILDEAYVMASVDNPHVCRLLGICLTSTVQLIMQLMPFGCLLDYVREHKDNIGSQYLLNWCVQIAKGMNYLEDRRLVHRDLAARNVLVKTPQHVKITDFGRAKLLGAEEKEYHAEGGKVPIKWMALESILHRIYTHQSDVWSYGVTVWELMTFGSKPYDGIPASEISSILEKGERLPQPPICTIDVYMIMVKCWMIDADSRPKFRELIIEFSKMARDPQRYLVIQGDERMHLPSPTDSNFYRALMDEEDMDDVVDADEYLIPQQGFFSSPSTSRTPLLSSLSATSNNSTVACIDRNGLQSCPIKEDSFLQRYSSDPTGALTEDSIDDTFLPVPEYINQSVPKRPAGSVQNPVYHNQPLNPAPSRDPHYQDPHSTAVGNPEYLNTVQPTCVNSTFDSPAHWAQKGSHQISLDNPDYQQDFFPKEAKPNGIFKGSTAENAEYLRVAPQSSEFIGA
How it was run: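 Readout is the phospho-EGFR (Tyr1068) to total EGFR HTRF ratio, expressed relative to 0 μM control. Adhered H1975 cells were exposed to compound for 3 hours at 0.1% DMSO, duplicate wells, then lysed for 30 min at room temperature before two-wavelength fluorescence reading.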

[3] = target: T2, Phospho-EGFR (Tyr1068) in H1975 C797S cells (CRISPR-edited EGFR C797S) (Homo sapiens, UniProt P00533, C797S/L858R/T790M); assay: HTRF pEGFR/total EGFR in H1975 C797S cells; type: cell-based; details: ratio pEGFR/total EGFR, compound 3 hours
T2 construct: host or cells: H1975 C797S (CRISPR-edited)
T2 sequence (P00533 25-1210 T790M/C797S/L858R): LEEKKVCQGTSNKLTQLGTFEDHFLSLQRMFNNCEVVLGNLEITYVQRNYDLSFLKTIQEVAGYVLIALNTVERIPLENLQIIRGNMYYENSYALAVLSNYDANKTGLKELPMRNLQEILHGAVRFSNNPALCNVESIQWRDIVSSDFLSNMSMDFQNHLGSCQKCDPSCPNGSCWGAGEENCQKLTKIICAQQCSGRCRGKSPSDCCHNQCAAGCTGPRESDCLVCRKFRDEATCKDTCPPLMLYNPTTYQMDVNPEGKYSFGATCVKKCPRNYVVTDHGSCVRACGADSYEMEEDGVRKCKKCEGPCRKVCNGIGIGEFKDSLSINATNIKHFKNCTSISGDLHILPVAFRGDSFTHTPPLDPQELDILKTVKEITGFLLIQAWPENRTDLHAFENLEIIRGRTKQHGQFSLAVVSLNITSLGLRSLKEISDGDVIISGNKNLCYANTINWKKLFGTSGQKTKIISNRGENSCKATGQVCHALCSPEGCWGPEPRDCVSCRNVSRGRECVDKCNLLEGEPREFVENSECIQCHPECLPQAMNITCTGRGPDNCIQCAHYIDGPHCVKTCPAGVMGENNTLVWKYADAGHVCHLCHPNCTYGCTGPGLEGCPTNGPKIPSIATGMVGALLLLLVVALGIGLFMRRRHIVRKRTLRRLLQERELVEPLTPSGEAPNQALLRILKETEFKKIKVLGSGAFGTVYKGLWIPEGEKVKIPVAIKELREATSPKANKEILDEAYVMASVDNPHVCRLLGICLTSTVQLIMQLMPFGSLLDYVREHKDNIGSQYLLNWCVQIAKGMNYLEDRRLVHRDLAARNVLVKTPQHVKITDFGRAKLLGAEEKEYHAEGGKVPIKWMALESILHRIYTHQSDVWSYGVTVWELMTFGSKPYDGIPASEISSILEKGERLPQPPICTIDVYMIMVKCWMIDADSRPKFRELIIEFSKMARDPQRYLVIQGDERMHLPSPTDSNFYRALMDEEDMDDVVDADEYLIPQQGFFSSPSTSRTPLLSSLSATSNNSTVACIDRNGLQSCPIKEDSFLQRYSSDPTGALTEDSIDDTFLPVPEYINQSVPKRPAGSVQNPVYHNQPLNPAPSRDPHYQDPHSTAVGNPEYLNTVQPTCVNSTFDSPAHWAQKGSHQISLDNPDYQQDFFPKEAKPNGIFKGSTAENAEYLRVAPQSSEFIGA
How it was run: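 Readout is the HTRF-measured Tyr1068 phospho-EGFR to total EGFR ratio, normalised to the 0 μM control as percent. Preceding this, CRISPR-edited H1975 C797S cells, plated 24 h earlier, were exposed 3 h to duplicate compound doses in medium with 0.1% DMSO, then lysed on a shaker.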

[4] = target: CtermHisTag-mEGFR Wild type (Homo sapiens, UniProt P00533); assay: biochemical
Sequence of CtermHisTag-mEGFR Wild type (P00533 whole entry): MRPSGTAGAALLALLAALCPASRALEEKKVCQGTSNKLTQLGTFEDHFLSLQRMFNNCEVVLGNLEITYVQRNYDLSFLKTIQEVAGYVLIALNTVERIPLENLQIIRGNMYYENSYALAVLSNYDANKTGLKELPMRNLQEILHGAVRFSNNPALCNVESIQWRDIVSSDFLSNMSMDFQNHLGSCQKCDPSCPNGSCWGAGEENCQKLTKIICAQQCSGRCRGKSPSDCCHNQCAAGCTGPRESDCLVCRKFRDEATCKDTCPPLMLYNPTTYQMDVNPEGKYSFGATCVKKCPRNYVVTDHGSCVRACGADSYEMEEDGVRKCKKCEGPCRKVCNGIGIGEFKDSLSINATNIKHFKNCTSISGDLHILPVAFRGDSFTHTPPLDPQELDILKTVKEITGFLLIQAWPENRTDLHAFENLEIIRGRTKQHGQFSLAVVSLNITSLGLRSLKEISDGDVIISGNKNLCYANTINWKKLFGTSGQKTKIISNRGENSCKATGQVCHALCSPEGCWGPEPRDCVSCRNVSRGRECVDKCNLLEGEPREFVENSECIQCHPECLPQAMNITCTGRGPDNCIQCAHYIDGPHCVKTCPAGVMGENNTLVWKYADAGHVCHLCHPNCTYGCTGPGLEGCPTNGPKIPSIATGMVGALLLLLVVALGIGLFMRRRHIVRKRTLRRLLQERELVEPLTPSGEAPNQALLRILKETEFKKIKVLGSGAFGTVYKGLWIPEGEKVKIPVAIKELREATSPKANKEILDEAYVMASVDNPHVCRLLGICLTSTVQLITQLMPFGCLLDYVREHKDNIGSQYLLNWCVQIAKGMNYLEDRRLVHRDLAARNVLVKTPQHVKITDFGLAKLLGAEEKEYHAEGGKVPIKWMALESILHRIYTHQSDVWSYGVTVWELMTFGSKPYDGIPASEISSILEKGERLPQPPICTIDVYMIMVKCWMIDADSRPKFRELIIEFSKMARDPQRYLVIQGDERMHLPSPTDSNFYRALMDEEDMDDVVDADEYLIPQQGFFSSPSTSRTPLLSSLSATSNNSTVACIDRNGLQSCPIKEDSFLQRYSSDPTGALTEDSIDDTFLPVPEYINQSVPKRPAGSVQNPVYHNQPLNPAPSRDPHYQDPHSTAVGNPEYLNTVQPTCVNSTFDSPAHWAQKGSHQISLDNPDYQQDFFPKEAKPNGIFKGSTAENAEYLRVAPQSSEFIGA

[5] = target: T3, Phospho-EGFR (Tyr1068) in A431 cells (Homo sapiens, UniProt P00533); assay: HTRF pEGFR/total EGFR in A431 cells with EGF stimulation; type: cell-based; details: ratio pEGFR/total EGFR, compound 2.5 hours then 100 ng/ml EGF 30 mins
T3 construct: endogenous in cells; host or cells: A431
T3 sequence (P00533 25-1210): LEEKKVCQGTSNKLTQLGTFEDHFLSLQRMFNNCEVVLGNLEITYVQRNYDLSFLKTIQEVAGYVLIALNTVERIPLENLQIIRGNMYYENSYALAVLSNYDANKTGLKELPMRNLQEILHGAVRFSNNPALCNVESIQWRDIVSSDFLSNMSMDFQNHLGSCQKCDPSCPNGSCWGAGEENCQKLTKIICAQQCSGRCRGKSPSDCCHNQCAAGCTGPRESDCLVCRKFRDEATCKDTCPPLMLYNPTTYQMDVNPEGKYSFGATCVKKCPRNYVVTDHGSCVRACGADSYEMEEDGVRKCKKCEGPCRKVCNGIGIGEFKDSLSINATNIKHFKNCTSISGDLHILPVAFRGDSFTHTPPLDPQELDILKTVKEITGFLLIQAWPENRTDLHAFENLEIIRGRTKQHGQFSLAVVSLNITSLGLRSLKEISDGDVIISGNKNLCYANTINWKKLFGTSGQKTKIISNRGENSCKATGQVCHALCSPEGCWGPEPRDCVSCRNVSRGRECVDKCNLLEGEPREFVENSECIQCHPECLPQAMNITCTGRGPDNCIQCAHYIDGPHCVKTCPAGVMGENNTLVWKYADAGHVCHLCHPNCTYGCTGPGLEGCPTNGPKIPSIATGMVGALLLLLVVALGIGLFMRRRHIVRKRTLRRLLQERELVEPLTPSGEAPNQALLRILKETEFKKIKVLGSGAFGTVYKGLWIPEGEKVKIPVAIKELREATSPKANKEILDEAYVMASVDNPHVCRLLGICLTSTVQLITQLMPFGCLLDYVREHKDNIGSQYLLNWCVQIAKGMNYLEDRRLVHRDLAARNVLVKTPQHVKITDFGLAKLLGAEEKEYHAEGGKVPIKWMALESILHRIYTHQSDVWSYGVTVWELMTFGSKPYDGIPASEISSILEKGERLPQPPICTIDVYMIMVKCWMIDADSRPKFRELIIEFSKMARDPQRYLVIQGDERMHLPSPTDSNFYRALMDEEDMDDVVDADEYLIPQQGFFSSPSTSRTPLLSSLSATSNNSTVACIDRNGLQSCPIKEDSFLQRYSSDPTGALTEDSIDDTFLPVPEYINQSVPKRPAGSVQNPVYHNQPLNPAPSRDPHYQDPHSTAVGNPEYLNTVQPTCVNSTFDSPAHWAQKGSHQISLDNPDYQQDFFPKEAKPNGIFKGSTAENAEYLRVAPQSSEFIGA
How it was run: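 Values are pEGFR(Tyr1068)/total EGFR HTRF ratios (665/620 nm) given as percent of the 0 μM control. Adhered A431 cells (20,000 per well, 24 h) had 2.5 h compound pretreatment in 0.1% DMSO, then 30 min of 100 ng/ml EGF before lysis.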

SMILES	pIC50 [2]	pIC50 [3]	pIC50 [4]	pIC50 [5]	also measured
CC(C)N1CCN(c2ccc3cc2NC(=O)CCCn2c(=O)cc(C#C[Si](C(C)C)(C(C)C)C(C)C)c4cnc(nc42)N3)CC1	–	–	–	–	ring closure, isolated yield ([1]; from CC(C)N1CCN(c2ccc(Nc3ncc4c(C#C[Si](C(C)C)(C(C)C)C(C)C)cc(=O)[nH]c4n3)cc2NC(=O)CCCO)CC1, 13-membered ring, PPh3/DEAD, 72.2 mM): 44%
CC(C)[Si](C#Cc1cc(=O)n2c3nc(ncc13)Nc1ccc(N3CCCN(C)CC3)c(c1)NC(=O)CCC2)(C(C)C)C(C)C	–	–	–	–	ring closure, isolated yield ([1]; from CC(C)[Si](C#Cc1cc(=O)[nH]c2nc(Nc3ccc(N4CCCN(C)CC4)c(NC(=O)CCCO)c3)ncc12)(C(C)C)C(C)C, 13-membered ring, PPh3/DEAD, 31.7 mM): 41%
CC(C)[Si](C#Cc1cc(=O)n2c3nc(ncc13)Nc1ccc(N3CCN(C)CC3)c(c1)CC(=O)NCC2)(C(C)C)C(C)C	–	–	–	–	ring closure, isolated yield ([1]; from CC(C)[Si](C#Cc1cc(=O)[nH]c2nc(Nc3ccc(N4CCN(C)CC4)c(CC(=O)NCCO)c3)ncc12)(C(C)C)C(C)C, 13-membered ring, PPh3/DIAD, 24.0 mM): 43%
CC(C)[Si](C#Cc1cc(=O)n2c3nc(ncc13)Nc1ccc(N3CCN(C)CC3)c(c1)CN(C)CCC2)(C(C)C)C(C)C	–	–	–	–	ring closure, isolated yield ([1]; from CC(C)[Si](C#Cc1cc(=O)[nH]c2nc(Nc3ccc(N4CCN(C)CC4)c(CN(C)CCCO)c3)ncc12)(C(C)C)C(C)C, 13-membered ring, PPh3/DIAD, 24.4 mM): 50%
CC(C)[Si](C#Cc1cc(=O)n2c3nc(ncc13)Nc1ccc(N3CCN(C)CC3)c(c1)CNCCC2)(C(C)C)C(C)C	–	–	–	–	ring closure, isolated yield ([1]; from CC(C)[Si](C#Cc1cc(=O)[nH]c2nc(Nc3ccc(N4CCN(C)CC4)c(CNCCCO)c3)ncc12)(C(C)C)C(C)C, 13-membered ring, PPh3/DIAD, 20.5 mM): 53%
CC(C)[Si](C#Cc1cc(=O)n2c3nc(ncc13)Nc1ccc(N3CCN(C)CC3)c(c1)COCCC2)(C(C)C)C(C)C	–	–	–	–	ring closure, isolated yield ([1]; from CC(C)[Si](C#Cc1cc(=O)[nH]c2nc(Nc3ccc(N4CCN(C)CC4)c(COCCCO)c3)ncc12)(C(C)C)C(C)C, 13-membered ring, PPh3/DIAD, 24.0 mM): 29%
CC(C)[Si](C#Cc1cc(=O)n2c3nc(ncc13)Nc1ccc(N3CCN(C)CC3)c(c1)COCCCC2)(C(C)C)C(C)C	–	–	–	–	ring closure, isolated yield ([1]; from CC(C)[Si](C#Cc1cc(=O)[nH]c2nc(Nc3ccc(N4CCN(C)CC4)c(COCCCCO)c3)ncc12)(C(C)C)C(C)C, 14-membered ring, PPh3/DEAD, 129.0 mM): 28%
CC(C)[Si](C#Cc1cc(=O)n2c3nc(ncc13)Nc1ccc(N3CCN(C)CC3)c(c1)NCCCC2)(C(C)C)C(C)C	–	–	–	–	ring closure, isolated yield ([1]; from CC(C)[Si](C#Cc1cc(=O)[nH]c2nc(Nc3ccc(N4CCN(C)CC4)c(NCCCCO)c3)ncc12)(C(C)C)C(C)C, 13-membered ring, PPh3/DIAD, 24.0 mM): 38%
CC(C)[Si](C#Cc1cc(=O)n2c3nc(ncc13)Nc1ccc(N3CCN(C)CC3)c(c1)OCC=CC2)(C(C)C)C(C)C	–	–	–	–	ring closure, isolated yield ([1]; from CC(C)[Si](C#Cc1cc(=O)[nH]c2nc(Nc3ccc(N4CCN(C)CC4)c(OC/C=C\CO)c3)ncc12)(C(C)C)C(C)C, 13-membered ring, PPh3/DIAD, 24.0 mM): 55%
CC(C)[Si](C#Cc1cc(=O)n2c3nc(ncc13)Nc1ccc(N3CCN(C)CC3)c(c1)OCCCC2)(C(C)C)C(C)C	–	–	–	–	ring closure, isolated yield ([1]; from CC(C)[Si](C#Cc1cc(=O)[nH]c2nc(Nc3ccc(N4CCN(C)CC4)c(OCCCCO)c3)ncc12)(C(C)C)C(C)C, 13-membered ring, PPh3/DIAD, 25.0 mM): 42%
CC(C)[Si](C#Cc1cc(=O)n2c3nc(ncc13)Nc1ccc(N3CCN(C)CC3)c(c1)OCCCCC2)(C(C)C)C(C)C	–	–	–	–	ring closure, isolated yield ([1]; from CC(C)[Si](C#Cc1cc(=O)[nH]c2nc(Nc3ccc(N4CCN(C)CC4)c(OCCCCCO)c3)ncc12)(C(C)C)C(C)C, 14-membered ring, PPh3/DIAD, 24.3 mM): 22%
C#Cc1c(C)c(=O)n2c3nc(ncc13)Nc1ccc(N3CCN(C)CC3)c(c1)OCCCCC2 [Example 229, 1^5-Ethynyl-1^6-Methyl-3^4-(4-methylpiperazin-1-yl)-1^7,1^8-dihydro-4-oxa-2-aza-1(2,8)-pyrido[2,3-d]pyrimidina-3(1,3)-benzenacyclononaphan-1^7-one]	> 6.30	> 6.30	> 6.00	> 6.30	–
C#Cc1cc(=O)n2c3nc(ncc13)Nc1ccc(N3CCN(C)CC3)c(c1)OCCCCCC2 [Example 230, 1^5-ethynyl-3^4-(4-methylpiperazin-1-yl)-1^7,1^8-dihydro-4-oxa-2-aza-1(2,8)-pyrido[2,3-d]pyrimidina-3(1,3)-benzenacyclodecaphan-1^7-one]	> 6.30	> 6.30	> 6.00	5.52 to 6.00	–
C#Cc1cc(=O)n2c3nc(ncc13)Nc1ccc(N3CCN(C)CC3)c(c1)COCCCC2 [Example 231, 1^5-Ethynyl-3^4-(4-methylpiperazin-1-yl)-1^7,1^8-dihydro-5-oxa-2-aza-1(2,8)-pyrido[2,3-d]pyrimidina-3(1,3)-benzenacyclononaphan-1^7-one]	> 6.30	> 6.30	> 6.00	5.52 to 6.00	–
C#Cc1cc(=O)n2c3nc(ncc13)Nc1ccc(N3CCN(C)CC3)c(c1)OCCOCC2 [Example 232, 1^5-Ethynyl-3^4-(4-Methylpiperazin-1-yl)-1^7,1^8-dihydro-4,7-dioxa-2-aza-1(2,8)-pyrido[2,3-d]pyrimidina-3(1,3)-benzenacyclononaphan-1^7-one]	> 6.30	> 6.30	> 6.00	< 5.52	–
C#Cc1cc(=O)n2c3nc(ncc13)Nc1ccc(N3CCN(C)CC3)c(c1)S(=O)(=O)NCCC2 [Example 234, 1^5-Ethynyl-3^4-(4-methylpiperazin-1-yl)-1^7,1^8-dihydro-4-thia-2,5-diaza-1(2,8)-pyrido[2,3-d]pyrimidina-3(1,3)-benzenacyclooctaphan-1^7-one 4,4-dioxide]	5.52 to 6.00	5.52 to 6.00	> 6.00	< 5.52	–
C#Cc1cc(=O)n2c3nc(ncc13)Nc1ccc(N3CCN(C(C)C)CC3)c(c1)NC(=O)CCC2 [Example 235, 1^5-Ethynyl-3^4-(4-isopropylpiperazin-1-yl)-1^7,1^8-dihydro-2,4-diaza-1(2,8)-pyrido[2,3-d]pyrimidina-3(1,3)-benzenacyclooctaphane-1^7,5-dione]	> 6.30	> 6.30	> 6.00	6.00 to 6.30	–
C#Cc1cc(=O)n2c3nc(ncc13)Nc1ccc(N3CCN(CCOC)CC3)c(c1)NC(=O)CCC2 [Example 236, 1^5-Ethynyl-3^4-(4-(2-methoxyethyl)piperazin-1-yl)-1^7,1^8-dihydro-2,4-diaza-1(2,8)-pyrido[2,3-d]pyrimidina-3(1,3)-benzenacyclooctaphane-1^7,5-dione]	> 6.30	> 6.30	> 6.00	5.52 to 6.00	–
C#Cc1cc(=O)n2c3nc(ncc13)Nc1ccc(N3CCN(C)CC3)c(c1)CNC(=O)CCC2 [Example 237, 1^5-Ethynyl-3^4-(4-methylpiperazin-1-yl)-1^7,1^8-dihydro-2,5-diaza-1(2,8)-pyrido[2,3-d]pyrimidina-3(1,3)-benzenacyclononaphane-1^7,6-dione]	> 6.30	6.00 to 6.30	> 6.00	< 5.52	–
C#Cc1cc(=O)n2c3nc(ncc13)Nc1ccc(N3CCCN(C)CC3)c(c1)NC(=O)CCC2 [Example 238, 1^5-Ethynyl-3^4-(4-methyl-1,4-diazepan-1-yl)-1^7,1^8-dihydro-2,4-diaza-1(2,8)-pyrido[2,3-d]pyrimidina-3(1,3)-benzenacyclooctaphane-1^7,5-dione]	> 6.30	> 6.30	> 6.00	< 5.52	–
C#Cc1cc(=O)n2c3nc(ncc13)Nc1ccc(N3CCN(C)CC3)c(c1)OCCC[C@H]2C [Example 239, (R)-1^5-ethynyl-8-methyl-3^4-(4-methylpiperazin-1-yl)-1^7,1^8-dihydro-4-oxa-2-aza-1(2,8)-pyrido[2,3-d]pyrimidina-3(1,3)-benzenacyclooctaphan-1^7-one]	> 6.30	> 6.30	> 6.00	< 5.52	–
C#Cc1cc(=O)n2c3nc(ncc13)Nc1ccc(N3CCN(C)CC3)c(c1)CCOCC2 [Example 240, 1^5-Ethynyl-3^4-(4-methylpiperazin-1-yl)-1^7,1^8-dihydro-6-oxa-2-aza-1(2,8)-pyrido[2,3-d]pyrimidina-3(1,3)-benzenacyclooctaphan-1^7-one]	> 6.30	> 6.30	> 6.00	5.52 to 6.00	–
C#Cc1cc(=O)n2c3nc(ncc13)Nc1ccc(N3CCN(CCOC)CC3)c(c1)OCCCC2 [Example 241, 1^5-Ethynyl-3^4-(4-(2-methoxyethyl)piperazin-1-yl)-1^7,1^8-dihydro-4-oxa-2-aza-1(2,8)-pyrido[2,3-d]pyrimidina-3(1,3)-benzenacyclooctaphan-1^7-one]	> 6.30	> 6.30	> 6.00	6.00 to 6.30	–
